Entries after “also recorded” stand apart in the source; their conditions may differ.

In this assay the test system is GSK-3 and its target genes. As to the kind of experiment: Quantitative real-time PCR of GSK-3 and its target genes under LiCl treatment. It is filed as cell-based, Coprinopsis cinerea. How it is done:
FIG. 6: The gene expression levels are indicated by the abundance of segments on the cDNA, by real-time PCR. […] Glycogen synthase (CC1G_01973); GSK-3 protein kinase (CC1G_03802); eukaryotic translation initiation factor 1 (CC1G_03881); Uncharacterized protein with Ricin B-type lectin domain (CC1G_05298); Translation initiation factor eIF2 gamma subunit (CC1G_09429).
The expression levels of targets genes of GSK-3 were measured to explore the mechanism of LiCl. To characterize the gene expression profile changes, quantitative real-time PCR analysis was performed. the kinase and its substrates by Orthologue searching were selected. A total of 83 GSK-3 substrates reported in human and mouse were mapped to the C. cinerea genome, and 52 orthologues were identified. Among them, CC1G_01973, CC1G_03881, and CC1G_09429 were selected for real-time PCR analysis. Samples treated by different doses of LiCl were frozen and homogenized in liquid nitrogen to extract total RNAs. […] Decreased eIF1 gene expression supports that LiCl block the fruiting through inhibiting GSK-3 activity in initiating the translation of key protein. Binding of eIF1 to 40S ribosome is key to maintain an open conformation on 40S ribosomal subunit to initiate translation (Passmore et al. 2007). Low level of eIF1 was also found to lower mRNA translation in Saccharomyces cerevisiae (You et al. 2010).
For orientation: In qPCR the cycle at which signal appears reflects the starting amount.

Setting [1] is: different doses of LiCl, real-time PCR.

For `[Cl-].[Li+]` [LiCl, Lithium chloride], the GSK-3 gene expression result (3 g/L LiCl mixed in the substrate) is “general decrease in GSK-3 gene expression”. Moreover, under setting [1], the “Expression level of GSK-3 gene and selected GSK-3 target genes” value is “could regulate the expression; also recorded: change the expression level”; the eIF1 gene expression result is reported as “decreased with increase of LiCl concentration”.

Source of the values: patent US11668702B2, “Regulation of fungal fruiting body development” (The Chinese University of Hong Kong, priority 2017, dated 2023).
